According to US11925629B2, “Heterocyclic inhibitors of ERK1 and ERK2 and their use in the treatment of cancer” (Asana Biosciences, LLC, priority 2015, dated 2024):
Structures can show the parent of a compound that is named as a salt.

Experiments:
[1] = test system: HT-29 (colorectal carcinoma, B-RafV600E) cells; experiment: Cell proliferation (Alamar Blue) assay, HT-29; assay type: cell-based, human; conditions: Homo sapiens, HT-29, HT29 cells
Experimental: (§1) Cell Proliferation (Alamar Blue) Assay
(§2) HT-29 (colorectal carcinoma, B-RafV600E), HCT116 (colorectal carcinoma, K Ras G13D), A375 (melanoma, B-RafV600E) and SK-Mel2 (melanoma, NRAS Q61R) cells (obtained from ATCC, USA) were seeded (5000 cells/well) in 96-well tissue culture plate and incubated at 37° C./5% CO2 for 16-24 hours. The cells were then treated with compounds, at concentrations typically from 0.0005 to 10 uM prepared in 3-fold serial dilutions. The plates were then incubated for 72 h at 37° C./5% CO2 in a moist environment. Then Alamar Blue™ reagent (final concentration 1×) was added to each well and incubated for 1-3 h at 37° C./5% CO2. The plates were read on fluorescence reader at 540 nm excitation and 590 nm emission wavelengths. The IC50 values were subsequently determined using a sigmoidal dose-response curve (variable slope) using GraphPad Prism® 5 software.

[2] = test system: HCT116 (colorectal carcinoma, K Ras G13D) cells; experiment: Cell proliferation (Alamar Blue) assay, HCT116; assay type: cell-based, human; conditions: Homo sapiens, HCT-116, HCT116 cells
Experimental: as §1, §2

SMILES | IC50 [1] [µM] | IC50 [2] [µM]
CC[C@@H](CO)Nc1ncc(C)c(-n2ccc(C(=O)N[C@@H](CO)c3cccc(Cl)c3)c2)n1 [Example 218, N-((R)-1-(3-chlorophenyl)-2-hydroxyethyl)-1-(2-(((S)-1-hydroxybutan-2-yl)amino)-5-methylpyrimidin-4-yl)-1H-pyrrole-3-carboxamide] | > 2.5 | > 2.5
NCC(NC(=O)c1cn(-c2ccnc(Nc3ccc(F)cc3)c2)cn1)c1ccccc1 (stereo not drawn) [Example 221, N-(2-amino-1-phenylethyl)-1-(2-((4-fluorophenyl)amino)pyridin-4-yl)-1H-imidazole-4-carboxamide] | 0.25 to 0.5 | 0.5 to 2.5
Cc1cnc(Nc2ccc(F)cc2)cc1-n1cnc(C(=O)NC(CO)c2ccccc2)c1 (stereo not drawn) [Example 222, 1-(2-((4-fluorophenyl)amino)-5-methylpyridin-4-yl)-N-(2-hydroxy-1-phenylethyl)-1H-imidazole-4-carboxamide] | > 2.5 | > 2.5
O=C(N[C@H](CO)c1cccc(Cl)c1)c1ccn(-c2nc(NC3CCOCC3)ncc2F)c1 [Example 229, (S)-N-(1-(3-chlorophenyl)-2-hydroxyethyl)-1-(5-fluoro-2-((tetrahydro-2H-pyran-4-yl)amino)pyrimidin-4-yl)-1H-pyrrole-3-carboxamide] | ≤ 0.1 | 0.5 to 2.5
Cc1cnc(Nc2ccc(F)cc2)cc1-n1cnc(C(=O)NC(CN)c2ccc(F)cc2)c1 (stereo not drawn) [Example 230, N-(2-amino-1-(4-fluorophenyl)ethyl)-1-(2-((4-fluorophenyl)amino)-5-methylpyridin-4-yl)-1H-imidazole-4-carboxamide] | 0.5 to 2.5 | > 2.5

Other lines, results leading:

IC50 [1] [µM] | IC50 [2] [µM] | SMILES
> 2.5 | > 2.5 | Cc1cnc(Nc2ccc3[nH]cc(C4=CCNCC4)c3c2)nc1-n1ccc(C(=O)NC(CO)c2cccc(Cl)c2)c1 (stereo not drawn) [Example 209, N-(1-(3-chlorophenyl)-2-hydroxyethyl)-1-(5-methyl-2-((3-(1,2,3,6-tetrahydropyridin-4-yl)-1H-indol-5-yl)amino)pyrimidin-4-yl)-1H-pyrrole-3-carboxamide hydrochloride]
> 2.5 | > 2.5 | Cc1cnc(NC2CCOCC2)nc1-n1cnc(C(=O)N[C@@H](CO)c2cccc(Cl)c2)c1 [Example 217, (R)-N-(1-(3-chlorophenyl)-2-hydroxyethyl)-1-(5-methyl-2-((tetrahydro-2H-pyran-4-yl)amino)pyrimidin-4-yl)-1H-imidazole-4-carboxamide]
0.25 to 0.5 | 0.25 to 0.5 | Cc1cnc(Nc2ccc(F)c(N3CCOCC3)c2)nc1-n1cnc(C(=O)NC(CO)c2cccc(Cl)c2)c1 (stereo not drawn) [Example 223, N-(1-(3-chlorophenyl)-2-hydroxyethyl)-1-(2-((4-fluoro-3-morpholinophenyl)amino)-5-methylpyrimidin-4-yl)-1H-imidazole-4-carboxamide]
0.25 to 0.5 | > 2.5 | Cc1cnc(NC2CCCCC2)nc1-n1cnc(C(=O)NC(CO)c2cccc(Cl)c2)c1 (stereo not drawn) [Example 226, N-(1-(3-chlorophenyl)-2-hydroxyethyl)-1-(2-(cyclohexylamino)-5-methylpyrimidin-4-yl)-1H-imidazole-4-carboxamide]
